Patent US4587046A, “Drug-carrier conjugates” (The Regents of the University of California, priority 1982, dated 1986)
Square brackets hold non-standard residues; d marks the D form. Peptide text beside a SMILES is read from it. * marks the point of attachment. Phe(4-NH2) = Nc1ccc(C[C@H](N)C(=O)O)cc1; X1 = CC(CCCCC(=O)*)NCC(O)c1ccc(O)c(O)c1; Nva(5-OH) = N[C@@H](CCCO)C(=O)O; Boc = CC(C)(C)OC(=O)*

Columns and labels:
[1] = test system: S49 cells; assay: wild type S49 cell assay, cyclic AMP accumulation (relative beta adrenergic activity); format: cell-based; settings: in vitro, ratio of KA for isoproterenol to KA for the compound, isoproterenol = 1
Method: The biological activity of the conjugates of the invention was tested in a wild type S49 cell assay. The assay is indicative of the relative beta adrenergic activity of the compound. The activity of each conjugate tested was compared to the activity of isoproterenol as the base standard. In the test, S49 cells were centrifuged and then resuspended (2 to 2.5×10^6 cells per ml.) in Dulbecco's modified Eagle medium (13.3 g per liter) and 20 mM Hepes (pH 7.4)+0.1% bovine serum albumin. The S49 suspensions were incubated at 37° C. for 10 minutes without the conjugate and then added to tubes with or without the conjugate for an additional 6 minutes. The reaction was stopped by cooling on ice. Incubation without the conjugates present established a base line. After isolation of a pellet of cells by centrifugation they were resuspended and boiled. Aliquots were then used for the competitive binding assay for cyclic AMP described by Gilman in the Procedings of the National Academy of Sciences USA 67, 305-312 (1970). Results were plotted as pmol cyclic AMP accumulated per 10^7 cells in excess of base line as a function of the log of the concentration of the analog. | ^a Biological activity was measured by cyclic AMP accumulation in S49 | cells. Relative activity is expressed as the ration of KA for | isoproterenol to KA for the compound.

[2] = test system: rat blood pressure; assay: in vivo reduction of rat blood pressure after injection into the femoral vein; design: species or system male Sprague-Dawley rats; settings: 0.001 to 10.0 mg/kg, ratio of molar ED50 of isoproterenol to molar ED50 of the compound (dose that reduces rat blood pressure by 50%)
Method: In addition to the in vitro testing set forth above, in vivo testing was also conducted on a number of conjugates of the invention. The tests were conducted by injecting various doses of the test conjugate into the femoral vein of rats and thereafter recording changes in heart rate, arterial pulse pressure and mean pressure.
More specifically, male Sprague-Dawley rats weighing 280-350 g had their femoral arteries connected to a Statham P-23 pressure transducer, which was in turn recorded on a Beckman Dynograph model R511A. Venus cannula were inserted in the femoral veins. Two syringes were attached to the veins via a 3-way stopcock. One syringe contained heparinized saline (40 units/ml) while the other contained the conjugate to be tested.
All cannulas were periodically flushed with the heparinized saline to prevent clots from forming. After the blood pressure and heart rate had stabilized, a volume of heparinized saline corresponding to the volume of drug conjugate the animal was to receive, was injected, and the response observed. Then various doses of the test drug conjugate were injected with a minimum interval of ten minutes between doses. The dose range was from 0.001 to 10.0 mg/kg, with the doses always being administered in increasing amounts. From the drug injections, a dose-response curve was obtained. The response curves were then compared to the animals' response to isoproterenol administered under the same conditions. Table 3 below presents the results of these in vivo tests:
^a Biological activity in vivo was measured as the effective dose tha
reduces rat blood pressure by 50%. Relative activity is expressed as the
ratio of the molar ED50 of isoproterenol to the molar ED50 of […]

| Structure (SMILES) | Activity relative to isoproterenol [1] | In Vivo Activity Relative to Isoproterenol [2] |
| --- | --- | --- |
| CC(=O)N[C@@H](Cc1ccc(NC(=O)CCCCC(C)NCC(O)c2ccc(O)c(O)c2)cc1)C(=O)NCCCO (some centres unmarked) [A] | 9.0 × 10^-2 | – |
| CC(=O)N[C@H](Cc1ccc(NC(=O)CCCCC(C)NCC(O)c2ccc(O)c(O)c2)cc1)C(=O)NCCCO (some centres unmarked) [B] | 4.0 × 10^-1 | – |
| CC(=O)N[C@@H](Cc1ccc(NC(=O)CCCCC(C)NCC(O)c2ccc(O)c(O)c2)cc1)C(=O)NCC(=O)O (some centres unmarked) [C] | 4.4 × 10^-1 | – |
| CNC(=O)CNC(=O)[C@H](Cc1ccc(NC(=O)CCCCC(C)NCC(O)c2ccc(O)c(O)c2)cc1)NC(C)=O (stereo partly drawn) [D, N^α -Acetyl-p-[6-(β-3',4-Dihydroxyphenyl-β-Hydroxy)-Ethylamino-n-Heptanoylamino]-L-Phenylalanyl-Glycyl-Methylamide] | 1.1 | – |
| CNC(=O)CNC(=O)[C@H](Cc1ccc(NC(=O)CCCCC(C)NCC(O)c2ccc(O)c(O)c2)cc1)NC(=O)OC(C)(C)C (stereo partly drawn) [E, N^α -t-Butyloxycarbonyl-p-[6-(β-3',4'-Dihydroxyphenyl-β-Hydroxy)-Ethylamino-n-Heptanoylamino]-L-Phenylalanyl-Glycyl-Methylamide] | 4.1 | 3.74 |
| CNC(=O)CNC(=O)[C@@H](N)Cc1ccc(NC(=O)CCCCC(C)NCC(O)c2ccc(O)c(O)c2)cc1 (some centres unmarked) [F] | 1.3 × 10^-4 | – |
| CNC(=O)[C@H](Cc1ccc(NC(=O)CCCCC(C)NCC(O)c2ccc(O)c(O)c2)cc1)NC(=O)CNC(=O)OC(C)(C)C (some centres unmarked) [G] | 6.8 × 10^-1 | .92 |
| CNC(=O)CC[C@H](NC(C)=O)C(=O)N[C@@H](Cc1ccc(NC(=O)CCCCC(C)NCC(O)c2ccc(O)c(O)c2)cc1)C(=O)NCC(=O)NC (some centres unmarked) [H] | 3.7 × 10^-6 | 1.77 |
| CNC(=O)CNC(=O)[C@H](Cc1ccc(NC(=O)CCCCC(C)NCC(O)c2ccc(O)c(O)c2)cc1)NC(=O)[C@H](CCCO)NC(C)=O (some centres unmarked) [I] | 8.0 × 10^-5 | 1.48 |
| CNC(=O)CNC(=O)[C@H](Cc1ccc(NC(=O)CCCCC(C)NCC(O)c2ccc(O)c(O)c2)cc1)NC(=O)[C@H](CCCNC(N)=O)NC(C)=O (some centres unmarked) [J] | – | .79 |
| CNC(=O)CNC(=O)[C@H](Cc1ccc(NC(=O)CCCCC(C)NCC(O)c2ccc(O)c(O)c2)cc1)NC(=O)[C@H](CCCNC(N)=O)NC(=O)OC(C)(C)C (some centres unmarked) [K] | 3.8 × 10^-5 | .22 |
| CNC(=O)CC[C@H](NC(C)=O)C(=O)N[C@@H](Cc1ccc(NC(=O)CCCC(C)NCC(O)c2ccc(O)c(O)c2)cc1)C(=O)N[C@@H](CCC(=O)NC)C(=O)NC (some centres unmarked) [L] | 4.5 × 10^-6 | – |
| CNC(=O)CC[C@H](NC(C)=O)C(=O)N[C@@H](Cc1ccc(NC(=O)CCCCC(C)NCC(O)c2ccc(O)c(O)c2)cc1)C(=O)N[C@@H](CCC(=O)NC)C(=O)NC (stereo partly drawn) [M, N^α -Acetyl-N'-Methyl-L-Glutaminyl-p-[6-(β-3',4'-Dihydroxyphenyl-β-Hydroxy)-Ethylamino-n-Heptanoylamino]-L-Phenylalanyl-N'-Methyl-L-Glutaminyl-Methylamide] | 2.3 × 10^-5 | – |
| CNC(=O)CC[C@H](NC(C)=O)C(=O)N[C@@H](Cc1ccc(NC(=O)CCCCCC(C)NCC(O)c2ccc(O)c(O)c2)cc1)C(=O)N[C@@H](CCC(=O)NC)C(=O)NC (some centres unmarked) [N] | 8.6 × 10^-6 | – |
| CNC(=O)CNC(=O)[C@H](Cc1ccc(NC(=O)CCCCC(C)NCC(O)c2ccc(O)c(O)c2)cc1)NC(=O)[C@H](CCCO)NC(=O)[C@H](CCCO)NC(=O)[C@H](CCCO)NC(=O)OC(C)(C)C (some centres unmarked) [O] (Boc-[Nva(5-OH)][Nva(5-OH)][Nva(5-OH)][Phe(4-NH2)](X1)G-NHMe) | 1.0 | .76 |
| CNC(=O)CNC(=O)[C@H](CCCO)NC(=O)[C@H](CCCO)NC(=O)[C@H](CCCO)NC(=O)[C@H](Cc1ccc(NC(=O)CCCCC(C)NCC(O)c2ccc(O)c(O)c2)cc1)NC(=O)OC(C)(C)C (some centres unmarked) [P] (Boc-[Phe(4-NH2)](X1)[Nva(5-OH)][Nva(5-OH)][Nva(5-OH)]G-NHMe) | 7.9 × 10^-1 | .59 |
